# Assay results as given in patent US10238661B2, “Fused, spirocyclic heteroaromatic compounds for the treatment of bacterial infections” (priority 2014, dated 2019).
# “And” between values parts separate entries of the source, which are not always exact repeats. Equal values may be shown once. Read-outs that look alike come from different tables or passages of the source.
# Legend:
# Mycoplasma genitalium = assay: microbe, parasite or virus in culture; format: cell-based; details: for MIC: Mycoplasmoides genitalium
# Ureaplasma species [1] = details: Ureaplasma urealyticum ATCC 33175; CLSI M43-A acceptable QC range; cited from earlier work
# Mycoplasma pneumoniae = assay: Broth microdilution MIC assay (CLSI M43-A), M. pneumoniae; format: cell-based; details: for MIC50 / MIC90 / MIC Range: M. pneumoniae isolates, n = 12
# Ureaplasma species [2] = assay: microbe, parasite or virus in culture; format: cell-based, Ureaplasma urealyticum, Ureaplasma parvum; details: for MIC50 / MIC90 / MIC: Ureaplasma; for MIC: ATCC33175
# Mycoplasma hominis = assay: microbe, parasite or virus in culture; format: cell-based
# Francisella tularensis = assay: microbe, parasite or virus in culture; format: cell-based
# Bacillus anthracis = assay: microbe, parasite or virus in culture; format: cell-based
# Yersinia pestis = assay: microbe, parasite or virus in culture; format: cell-based
# [3] = tested on: Burkholderia pseudomallei; assay: microbe, parasite or virus in culture; format: cell-based
# Brucella suis = assay: microbe, parasite or virus in culture; format: cell-based
# Brucella melitensis = assay: microbe, parasite or virus in culture; format: cell-based
# Burkholderia mallei = assay: microbe, parasite or virus in culture; format: cell-based; details: Burkholderia mallei
# [4] = M. pneumoniae M-129 QC Strain ATCC 29342-B7, read-out: MIC
# [5] = M. pneumoniae isolate 51494, read-out: MIC
# [6] = M. pneumoniae isolate 53706, read-out: MIC
# [7] = M. pneumoniae isolate 53938, read-out: MIC
# [8] = M. pneumoniae isolate 54484, macrolide-resistant, read-out: MIC
# [9] = M. pneumoniae isolate 54506, macrolide-resistant, read-out: MIC
# [10] = M. pneumoniae isolate 55246, read-out: MIC
# [11] = M. pneumoniae isolate 55612, read-out: MIC
# [12] = M. pneumoniae isolate 57807, read-out: MIC
# [13] = M. pneumoniae isolate 58188, read-out: MIC
# [14] = M. pneumoniae isolate 58772, read-out: MIC
# [15] = M. pneumoniae isolate 59597, read-out: MIC
# [16] = M. pneumoniae isolate 59598, read-out: MIC
structure (smiles),measurement,setting,value
CC[C@H]1OC(=O)[C@H](C)[C@@H](O[C@H]2C[C@@](C)(OC)[C@@H](O)[C@H](C)O2)[C@H](C)[C@@H](O[C@@H]2O[C@H](C)C[C@H](N(C)C)[C@H]2O)[C@](C)(O)C[C@@H](C)CN(C)[C@H](C)[C@@H](O)[C@]1(C)O [Azithromycin],MIC Range,Mycoplasma genitalium,<0.001 µg/mL
same,MIC,Mycoplasma genitalium,< 0.001 µg/mL
same,MIC,Mycoplasma genitalium; ATCC33530,< 0.001 µg/mL
same,MIC,Mycoplasma genitalium; ATCC49895,< 0.001 µg/mL
same,MIC,Mycoplasma genitalium; ATCC49899,< 0.001 µg/mL
same,MIC Limits for Quality Control Strain,Ureaplasma species [1],0.5 to 8 µg/mL
same,MIC,Mycoplasma pneumoniae; [4],< 0.001 µg/mL
same,MIC,Mycoplasma pneumoniae; [5],< 0.001 µg/mL
same,MIC,Mycoplasma pneumoniae; [6],< 0.001 µg/mL
same,MIC,Mycoplasma pneumoniae; [7],< 0.001 µg/mL
same,MIC,Mycoplasma pneumoniae; [8],32 µg/mL
same,MIC,Mycoplasma pneumoniae; [9],16 µg/mL
same,MIC,Mycoplasma pneumoniae; [10],< 0.001 µg/mL
same,MIC,Mycoplasma pneumoniae; [11],< 0.001 µg/mL
same,MIC,Mycoplasma pneumoniae; [12],< 0.001 µg/mL
same,MIC,Mycoplasma pneumoniae; [13],< 0.001 µg/mL
same,MIC,Mycoplasma pneumoniae; [14],< 0.001 µg/mL
same,MIC,Mycoplasma pneumoniae; [15],< 0.001 µg/mL
same,MIC,Mycoplasma pneumoniae; [16],< 0.001 µg/mL
same,MIC50,Mycoplasma pneumoniae,< 0.001 µg/mL
same,MIC90,Mycoplasma pneumoniae,16 µg/mL
same,MIC Range,Mycoplasma pneumoniae,<0.001-32 ^ μg/mL
same,MIC,"Mycoplasma pneumoniae; most M. pneumoniae isolates, read-out: MICs of most isolates",< 0.001 µg/mL
same,MICs of two macrolide-resistant strains,Mycoplasma pneumoniae; two M. pneumoniae strains with mutations in 23S ribosomal RNA,32 µg/mL
same,MIC,"Mycoplasma pneumoniae; two M. pneumoniae strains with mutations in 23S ribosomal RNA, read-out: MICs of two macrolide-resistant strains",16 µg/mL
same,MIC Range,Ureaplasma species [2],1 to 32 µg/mL
same,MIC50,Ureaplasma species [2],2 µg/mL
same,MIC90,Ureaplasma species [2],4 µg/mL
same,MIC,Ureaplasma species [2],2 µg/mL
same,MIC Range,Mycoplasma hominis,1 to 8 µg/mL
same,MIC50,Mycoplasma hominis; Metamycoplasma hominis,4 µg/mL
same,MIC90,Mycoplasma hominis; Metamycoplasma hominis,4 µg/mL
O=C(N[C@H](CO)[C@H](O)c1ccc([N+](=O)[O-])cc1)C(Cl)Cl [Chloramphenicol],MIC,Francisella tularensis,1 µg/mL
same,MIC,Francisella tularensis; Francisella tularensis,2 µg/mL
same,MIC,Bacillus anthracis,4 µg/mL
same,MIC,Bacillus anthracis; Bacillus anthracis,8 µg/mL
"C[C@@H]1CN2c3c(cc4c(N5C(=O)OC[C@@H]5C)noc4c3F)CC3(C(=O)NC(=O)NC3=O)[C@H]2[C@H](C)O1 [Compound 1, (2R,4S,4aS)-11-fluoro-2,4-dimethyl-8-[(4S)-4-methyl-2-oxo-1,3-oxazolidin-3-yl]-1,2,4,4a-tetrahydro-2′H,6H-spiro[1,4-oxazino[4,3-a][1,2]oxazolo[4,5-g]quinoline-5,5′-pyrimidine]-2′,4′,6′(1′H,3′H)-trione]",MIC50,Yersinia pestis,4 µg/mL
same,MIC50,Yersinia pestis; Yersinia pestis,2 µg/mL
same,MIC,Mycoplasma genitalium,0.5 µg/mL
same,MIC,Mycoplasma genitalium; ATCC33530,0.5 µg/mL
same,MIC,Mycoplasma genitalium; ATCC49895,1 µg/mL
same,MIC,Mycoplasma genitalium; ATCC49899,0.5 µg/mL
same,MIC90 relative to doxycycline (fold higher),Mycoplasma pneumoniae; M. pneumoniae,4 fold
same,MIC,Mycoplasma pneumoniae; [4],0.5 µg/mL
same,MIC,Mycoplasma pneumoniae; [5],0.5 µg/mL
same,MIC,Mycoplasma pneumoniae; [6],0.5 µg/mL
same,MIC,Mycoplasma pneumoniae; [7],0.5 µg/mL
same,MIC,Mycoplasma pneumoniae; [8],0.5 µg/mL
same,MIC,Mycoplasma pneumoniae; [9],0.5 µg/mL
same,MIC,Mycoplasma pneumoniae; [10],1 µg/mL
same,MIC,Mycoplasma pneumoniae; [11],1 µg/mL
same,MIC,Mycoplasma pneumoniae; [12],0.5 µg/mL
same,MIC,Mycoplasma pneumoniae; [13],0.5 µg/mL
same,MIC,Mycoplasma pneumoniae; [14],0.5 µg/mL
same,MIC,Mycoplasma pneumoniae; [15],0.5 µg/mL
same,MIC,Mycoplasma pneumoniae; [16],0.5 µg/mL
same,MIC50,Mycoplasma pneumoniae,0.5 µg/mL
same,MIC90,Mycoplasma pneumoniae,1 µg/mL
same,in vitro potency against macrolide-resistant versus macrolide-susceptible isolates,Mycoplasma pneumoniae; two macrolide-resistant M. pneumoniae isolates,maintained in vitro potency
same,MIC,Francisella tularensis,8 µg/mL
same,MIC Range,Francisella tularensis,8 to 16 µg/mL
same,MIC,Francisella tularensis; Francisella tularensis,16 µg/mL
same,MIC50,Francisella tularensis; Francisella tularensis,16 µg/mL
same,MIC90,Francisella tularensis; Francisella tularensis,16 µg/mL
same,MIC,[3],64 µg/mL
same,MIC90,[3],>64 µg/mL
same,MIC,[3]; Burkholderia pseudomallei,32 µg/mL
same,MIC50,[3]; Burkholderia pseudomallei,32 µg/mL
same,MIC90,[3]; Burkholderia pseudomallei,64 µg/mL
same,MIC90 potency relative to azithromycin (fold more potent / lower MIC90),Ureaplasma species [2],4 fold
same,MIC range for isolates containing tetM,Ureaplasma species [2],0.5 to 2 µg/mL
same,"difference in MICs, levofloxacin-resistant versus levofloxacin-susceptible isolates",Ureaplasma species [2],no difference
same,MIC50,Ureaplasma species [2],0.5 µg/mL
same,MIC90,Ureaplasma species [2],1 µg/mL
same,MIC,Ureaplasma species [2],0.5 µg/mL
same,MIC90 relative to levofloxacin (fold greater),Mycoplasma hominis,16 fold
same,MIC Range,Mycoplasma hominis,1 to 8 µg/mL
same,effect of presence of tetM on MICs,Mycoplasma hominis,not affected by the presence of tetM
same,MIC50,Mycoplasma hominis; Metamycoplasma hominis,2 µg/mL
same,MIC90,Mycoplasma hominis; Metamycoplasma hominis,4 µg/mL
same,MIC,"Mycoplasma hominis; Metamycoplasma hominis, read-out: maximum MIC value",8 µg/mL
same,MIC,Brucella suis,1 µg/mL
same,MIC Range,Brucella suis,1 to 2 µg/mL
same,MIC,Brucella suis; Brucella suis,2 µg/mL
same,MIC50,Brucella suis; Brucella suis,1 µg/mL
same,MIC90,Brucella suis; Brucella suis,2 µg/mL
same,MIC,Brucella melitensis,16 µg/mL
same,MIC,Brucella melitensis; Brucella melitensis,8 µg/mL
same,MIC90,Bacillus anthracis,1 µg/mL
same,MIC Range,Bacillus anthracis,0.12 to 1 µg/mL and 0.12 to 4 µg/mL
same,MIC50,Bacillus anthracis; Bacillus anthracis,0.25 µg/mL
same,MIC90,Bacillus anthracis; Bacillus anthracis,0.5 µg/mL
same,MIC90,Burkholderia mallei,32 µg/mL
C[C@H]1c2cccc(O)c2C(=O)C2=C(O)[C@]3(O)C(=O)C(C(N)=O)=C(O)[C@@H](N(C)C)[C@@H]3[C@@H](O)[C@@H]21 [Doxycycline],MIC,Yersinia pestis,1 µg/mL
same,MIC,Yersinia pestis; Yersinia pestis,0.5 µg/mL
same,MIC Range,Mycoplasma genitalium,0.25 to 1 µg/mL
same,MIC,Mycoplasma genitalium,1 µg/mL
same,MIC,Mycoplasma genitalium; ATCC33530,0.25 µg/mL
same,MIC,Mycoplasma genitalium; ATCC49895,0.25 µg/mL
same,MIC,Mycoplasma genitalium; ATCC49899,0.5 µg/mL
same,MIC,Mycoplasma pneumoniae; [4],0.5 µg/mL
same,MIC,Mycoplasma pneumoniae; [5],0.25 µg/mL
same,MIC,Mycoplasma pneumoniae; [6],0.25 µg/mL
same,MIC,Mycoplasma pneumoniae; [7],0.25 µg/mL
same,MIC,Mycoplasma pneumoniae; [8],0.25 µg/mL
same,MIC,Mycoplasma pneumoniae; [9],0.25 µg/mL
same,MIC,Mycoplasma pneumoniae; [10],0.25 µg/mL
same,MIC,Mycoplasma pneumoniae; [11],0.25 µg/mL
same,MIC,Mycoplasma pneumoniae; [12],0.25 µg/mL
same,MIC,Mycoplasma pneumoniae; [13],0.125 µg/mL
same,MIC,Mycoplasma pneumoniae; [14],0.5 µg/mL
same,MIC,Mycoplasma pneumoniae; [15],0.25 µg/mL
same,MIC,Mycoplasma pneumoniae; [16],0.25 µg/mL
same,MIC50,Mycoplasma pneumoniae,0.25 µg/mL
same,MIC90,Mycoplasma pneumoniae,0.25 µg/mL
same,MIC Range,Mycoplasma pneumoniae,0.125 to 0.5 µg/mL
same,MIC90 activity relative to Compound 1 (fold more active),Ureaplasma species [2],8 fold
same,MIC Range,Ureaplasma species [2],0.016 to 8 µg/mL
same,MIC range for isolates containing tetM,Ureaplasma species [2],4 to 8 µg/mL
same,MIC50,Ureaplasma species [2],0.125 µg/mL
same,MIC90,Ureaplasma species [2],8 µg/mL
same,MIC,Ureaplasma species [2],8 µg/mL
same,MIC90,Ureaplasma species [2]; read-out: MIC90 for doxycycline-susceptible organisms,0.125 µg/mL
same,MIC Range,Mycoplasma hominis,0.016 to 4 µg/mL
same,MICs for isolates with tetM,Mycoplasma hominis,4 µg/mL
same,MICs for isolates without tetM,Mycoplasma hominis,0.016 to 0.063 µg/mL
same,MIC50,Mycoplasma hominis; Metamycoplasma hominis,0.032 µg/mL
same,MIC90,Mycoplasma hominis; Metamycoplasma hominis,4 µg/mL
same,MIC,Brucella suis,0.125 µg/mL
same,MIC,Brucella suis; Brucella suis,0.063 µg/mL
same,MIC,Brucella melitensis,0.125 µg/mL
same,MIC,Brucella melitensis; Brucella melitensis,0.25 µg/mL
same,MIC,Bacillus anthracis; Bacillus anthracis,≤ 0.031 µg/mL
CC[C@H]1OC(=O)[C@H](C)C(=O)[C@H](C)[C@@H](O[C@@H]2O[C@H](C)C[C@H](N(C)C)[C@H]2O)[C@](C)(OC)C[C@@H](C)C(=O)[C@H](C)[C@H]2N(CCCCn3cnc(-c4cccnc4)c3)C(=O)O[C@]12C [Telithromycin],MIC Limits for Quality Control Strain,Ureaplasma species [1],0.125 to 1 µg/mL
CN(C)[C@@H]1C(O)=C(C(N)=O)C(=O)[C@@]2(O)C(O)=C3C(=O)c4c(O)cccc4[C@@](C)(O)[C@H]3C[C@@H]12 [Tetracycline],MICs for isolates with tetM,Mycoplasma hominis,32 µg/mL
